Laboratory results taken from patent US8828988B2 (Tetraphase Pharmaceuticals, Inc., priority 2009, dated 2014).
Values after ≈ are worked out from the molar mass of the structure shown. Like-named read-outs stand apart in the source and are kept apart here.

What was measured:
E. coli ATCC 25922 = assay: Mouse systemic infection model, E. coli septicemia; details: survival after 48 hours
[1] = test system: Staphylococcus aureus SA100, ATCC 13709, MSSA, Smith strain; assay: MIC assay, SA100; type: cell-based
[2] = test system: Pseudomonas aeruginosa PA111, ATCC 27853; assay: MIC assay, PA111; type: cell-based; details: ATCC27853, Table 9, read-out: MIC P. aeruginosa ATCC 27853
[3] = test system: Klebsiella pneumoniae KP109, ATCC 13883; assay: MIC assay, KP109; type: cell-based; details: ATCC13883, Table 9, read-out: MIC Klebsiella pneum ATCC 13883
[4] = test system: Staphylococcus aureus SA161, HA-MRSA, tetracycline-resistant, tet(M); assay: MIC assay, SA161; type: cell-based
[5] = test system: Streptococcus pneumoniae SP106, ATCC 49619; assay: MIC assay, SP106; type: cell-based
[6] = test system: Escherichia coli EC107, ATCC 25922; assay: MIC assay, EC107; type: cell-based
in vivo = details: Sprague-Dawley, rat
[7] = test system: Streptococcus pneumoniae SP160, tetracycline-resistant, tet(M); assay: MIC assay, SP160; type: cell-based
[8] = Pharmacokinetic analysis in Sprague-Dawley rats
[9] = test system: Enterobacter cloacae EC108, ATCC 13047; assay: MIC assay, EC108; type: cell-based; details: ATCC13047, Table 9, read-out: MIC Enterobacter cloaceae ATCC 13047
[10] = test system: E. coli S30 extract system, coupled in vitro transcription/translation, firefly luciferase readout; assay: In vitro transcription/translation (TnT) assay; type: biochemical; details: for IC50, in vitro transcription/translation system: E. coli S30 extract, luciferase readout
[11] = test system: S. aureus ATCC 13709 (Smith); assay: Mouse systemic infection model, S. aureus septicemia; details: survival after 48 hours
[12] = test system: H. influenzae isolates (Eurofins-Medinet, recent clinical isolates); assay: MIC50 and MIC90 analysis (Example 22)
Method: (§5) Frozen bacterial strains were thawed and subcultured onto Mueller Hinton Broth (MHB) or other appropriate media (Streptococcus requires blood and Haemophilus requires hemin and NAD). Following incubation overnight, the strains were subcultured onto Mueller Hinton Agar and again incubated overnight. […] Isolated colonies were selected to prepare a starting inoculum equivalent to a 0.5 McFarland standard. […] Antibiotics (stored frozen, thawed and used within 3 hours of thawing) and compounds were further diluted to the desired working concentrations.
(§6) The assays were run as follows. Fifty μL of MHB was added to wells 2-12 of a 96-well plate. One hundred μL of appropriately diluted antibiotic or compound was added to well 1. Fifty μL of antibiotics or compound was removed from well 1 and added to well 2 and the contents of well 2 mixed by pipetting up and down five times. Fifty μL of the mixture in well 2 was removed and added to well 3 and mixed as above. Serial dilutions were continued in the same manner through well 12. Fifty μL was removed from well 12 so that all contained 50 μL. Fifty μL of the working inoculum was then added to all test wells. A growth control well was prepared by adding 50 μL of working inoculum and 50 μL of MHB to an empty well. The plates were then incubated at 37° C. overnight, removed from the incubator and each well was read on a plate reading mirror. The lowest concentration (MIC) of test compound that inhibited the growth of the bacteria was recorded.
(§7) MIC, MIC50 and MIC90 values were determined according to CLSI methodology. S. pneumoniae and H. influenzae isolates were obtained from Eurofins-Medinet and are recent clinical isolates. S. aureus strains were collected from various geographical sources.

[13] = test system: Enterococcus faecalis EF159, tetracycline-resistant, tet(M); assay: MIC assay, EF159; type: cell-based
[14] = test system: Staphylococcus aureus SA158, tetracycline-resistant tet(K); assay: MIC assay, SA158; type: cell-based
[15] = test system: Enterococcus faecalis EF103, ATCC 29212; assay: MIC assay, EF103; type: cell-based; details: for MIC: Enterococcus faecalis, ATCC29212, Table 8, read-out: MIC E. faecalis ATCC 29212
[16] = test system: S. pneumoniae isolates (Eurofins-Medinet, recent clinical isolates); assay: MIC50 and MIC90 analysis (Example 22)
Method: as §5, §6, §7

[17] = test system: Acinetobacter baumannii AB110, ATCC 19606; assay: MIC assay, AB110; type: cell-based; details: ATCC19606, Table 9, read-out: MIC A.baum AB110
[18] = test system: S. aureus strains collected from various geographical sources; assay: MIC50 and MIC90 analysis (Example 22)
Method: as §5, §6, §7

[19] = test system: Klebsiella pneumoniae KP153, tetracycline-resistant, tet(A), MDR, ESBL+; assay: MIC assay, KP153; type: cell-based; details: Table 9, read-out: MIC Klebsiella pneum KP153 (tet)A
[20] = test system: Staphylococcus aureus SA101, ATCC 29213, MSSA; assay: MIC assay, SA101; type: cell-based
[21] = test system: Escherichia coli EC155, tetracycline-resistant, tet(A); assay: MIC assay, EC155; type: cell-based
[22] = test system: E. coli DH10B(pBAD-tetM), expressing tet(M); assay: MIC against recombinant E. coli expressing tet(M); type: cell-based; details: for MIC: Escherichia coli
Description: (§1) Constructs were transformed into E. coli DH10B for expression. Recombinant strains were pre-induced under optimized conditions with L-arabinose prior to use as inocula in CLSI standardized MIC assays.

[23] = test system: E. faecalis clinical isolates; assay: MIC50, MIC90 and MIC range, panel of clinical isolates (Example 20); type: cell-based; details: 24 isolates, in µg/mL
Method: (§2) The assays were run as follows.
(§3) Both values, as well as the MIC range (the lowest and highest MIC value observed for a collection of organisms), were determined for the isolates listed in Table 3.

[24] = test system: S. pneumoniae clinical isolates; assay: as above; type: cell-based; details: 19 isolates, in µg/mL
Method: as §2, §3

[25] = test system: S. aureus clinical isolates; assay: as above; type: cell-based; details: MRSA, 30 isolates; in µg/mL
Method: as §2, §3

[26] = test system: tet(K) strains of S. aureus; assay: MIC, CLSI methodology, recent clinical isolates (Example 21); type: cell-based; details: Staphylococcus aureus, read-out: MIC against tet(K) strains of S. aureus
Method: as §2
(§4) The antibacterial activities of Compounds MIC values were determined according to CLSI methodology. Recent clinical isolates were obtained from Eurofins-Medinet. Antibiotics were obtained from standard commercial sources.

[27] = test system: tet(M) and tet(S) strains of E. faecalis; assay: as above; type: cell-based; details: Enterococcus faecalis, read-out: MIC against tet(M) and tet(S) strains of E. faecalis
Method: as §2, §4

[28] = test system: tet(M) strains of S. pneumoniae; assay: as above; type: cell-based; details: Streptococcus pneumoniae, read-out: MIC against tet(M) strains of S. pneumoniae
Method: as §2, §4

[29] = test system: tet(M) strains of S. aureus; assay: as above; type: cell-based; details: Staphylococcus aureus, read-out: MIC against tet(M) strains of S. aureus
Method: as §2, §4

[30] = test system: E. coli DH10B(pBAD-tetK), expressing tet(K); assay: MIC against recombinant E. coli expressing tet(K); type: cell-based; details: for MIC: Escherichia coli
Description: as §1

[31] = Table 8, read-out: MIC S. aureus MRSA, tetM
[32] = ATCC49619, Table 8, read-out: MIC S. pneumoniae ATCC 49619
[33] = ATCC25922, Table 8, read-out: MIC E. coli ATCC 25922
[34] = Table 8, read-out: MIC S. pneumoniae tetM
[35] = after IV dosing, single dose 1 mg/kg
[36] = Table 8, read-out: MIC E. faecalis tetM
[37] = Table 8, read-out: MIC S. aureus tetK
[38] = Table 8, read-out: MIC S. aureus ATCC 29213
[39] = Table 8, read-out: MIC E. coli tetA

Compound: CN(C)c1ncc(O)c2c1C[C@H]1C[C@H]3[C@H](N(C)C)C(O)=C(C(N)=O)C(=O)[C@@]3(O)C(O)=C1C2=O [Compound 109]
- PD50 in the mouse septicemia model against E. coli (E. coli ATCC 25922; CD-1 mice, IP infection, treatment one hour post-challenge): 4.3 mg/kg
- PD50 (E. coli ATCC 25922; mouse septicemia, E. coli ATCC 25922, treatment one hour post-challenge): 4.3 mg/kg
- MIC ([1]; Table 9, read-out: MIC S. aureus ATCC 13709): 0.13 µg/mL (≈ 0.284 µM)
- MIC ([1]; Table 12, read-out: MIC S. aureus ATCC 13709): 0.25 µg/mL (≈ 0.545 µM)
- MIC [2]: 8 µg/mL (≈ 17.4 µM)
- MIC [3]: 0.5 µg/mL (≈ 1.09 µM)
- MIC [4, 31]: 16 µg/mL (≈ 34.9 µM)
- MIC ([4]; Table 9, read-out: MIC MRSA (tet)M SA161): 32 µg/mL (≈ 69.8 µM)
- MIC [5, 32]: 0.031 µg/mL (≈ 0.0676 µM)
- MIC ([5]; ATCC49619, Table 9, read-out: MIC S. pneum ATCC 49619): 0.03 µg/mL (≈ 0.0654 µM)
- MIC [6, 33]: 0.13 µg/mL (≈ 0.284 µM)
- MIC ([6]; ATCC25922, Table 9, read-out: MIC E. coli ATCC 25922): 0.13 µg/mL (≈ 0.284 µM)
- MIC ([6]; ATCC25922, Table 12, read-out: MIC E. coli ATCC 25922): 0.13 µg/mL (≈ 0.284 µM)
- AUC(0-t) (in vivo; iv, 1 mg/kg): 1090 ng·h/mL
- Cmax (in vivo; iv, 1 mg/kg): 603 ng/mL
- Tmax (in vivo; iv, 1 mg/kg): 0.08 h
- half-life (in vivo; iv, 1 mg/kg): 3 h
- bioavailability (in vivo; oral, 10 mg/kg): 13%
- AUC(0-t) (in vivo; po, 10 mg/kg): 1250 ng·h/mL
- Cmax (in vivo; po, 10 mg/kg): 192 ng/mL
- Tmax (in vivo; po, 10 mg/kg): 1.4 h
- half-life (in vivo; po, 10 mg/kg): 4.51 h
- MIC [7, 34]: 8 µg/mL (≈ 17.4 µM)
- MIC ([7]; Table 9, read-out: MIC S. pneum SP160 (tet)M): 8 µg/mL (≈ 17.4 µM)
- Clobs ([8]; IV, single dose 1 mg/kg, mean): 15.311 mL/min/kg
- Vzobs ([8]; IV, single dose 1 mg/kg, mean): 4.17697 L/kg
- half-life ([8]; IV, single dose 1 mg/kg, mean): 3.14 h
- AUC [8, 35]: 1087 ng·h/mL
- Cl [8, 35]: 15.3 mL/min/kg
- Vz [8, 35]: 4.177 L/kg
- % F. ([8]; oral bioavailability, PO 10 mg/kg vs IV 1 mg/kg): 12.74%
- MIC [9]: 1 µg/mL (≈ 2.18 µM)
- TnT IC50 [10]: 0.76 µg/mL
- IC50, in vitro transcription/translation system [10]: sub-μg/ml
- E. coli TnT ([10]; Table 8): 0.9 µg/mL
- PD50 in the mouse septicemia model against S. aureus ([11]; CD-1 mice, IP infection, intravenous treatment one hour post-challenge): < 0.3 mg/kg
- PD50 ([11]; mouse septicemia, S. aureus ATCC 13709, intravenous treatment one hour post-challenge): <0.30 mg/kg
- MIC Range ([12]; H. influenzae (n = 12)): 0.063 to 4 µg/mL
- MIC50 ([12]; Haemophilus influenzae): 0.5 µg/mL (≈ 1.09 µM)
- MIC90 ([12]; Haemophilus influenzae): 2 µg/mL (≈ 4.36 µM)
- MIC [13, 36]: 32 µg/mL (≈ 69.8 µM)
- MIC ([13]; Table 9, read-out: MIC E. faecalis EF159 (tet)M): 32 µg/mL (≈ 69.8 µM)
- MIC [14, 37]: 2 µg/mL (≈ 4.36 µM)
- MIC ([14]; Table 9, read-out: MIC S. aureus SA158 (tet)K): 1 µg/mL (≈ 2.18 µM)
- MIC [15]: 1 µg/mL (≈ 2.18 µM)
- MIC E. faecalis ATCC 29212 ([15]; Table 9): 1 µg/mL (≈ 2.18 µM)
- MIC Range ([16]; S. pneumoniae (n = 20)): ≦0.016-8 μg/ml
- MIC50 ([16]; Streptococcus pneumoniae): 2 µg/mL (≈ 4.36 µM)
- MIC90 ([16]; Streptococcus pneumoniae): 4 µg/mL (≈ 8.72 µM)
- MIC [17]: 0.5 µg/mL (≈ 1.09 µM)
- MIC Range ([18]; S. aureus (n = 20)): ≦0.016-1 μg/ml
- MIC50 ([18]; Staphylococcus aureus): ≤ 0.016 µg/mL
- MIC90 ([18]; Staphylococcus aureus): ≤ 0.016 µg/mL
- MIC [19]: > 32 µg/mL
- MIC [20, 38]: 0.031 µg/mL (≈ 0.0676 µM)
- MIC ([20]; Table 9, read-out: MIC S. aureus ATCC 29213): 0.03 µg/mL (≈ 0.0654 µM)
- MIC [21, 39]: > 32 µg/mL
- MIC ([21]; Table 9, read-out: MIC E. coli EC155 (tet)A): > 32 µg/mL

Compound: CN(C)[C@@H]1C(O)=C(C(N)=O)C(=O)[C@@]2(O)C(O)=C3C(=O)c4c(O)c(NCC(C)(C)CN5CCCC5)nc(Cl)c4C[C@H]3C[C@@H]12 [Compound 108]
- MIC ([22]; read-out: MIC, TetM induced): 2 µg/mL
- MIC ([22]; read-out: MIC, Uninduced): 2 µg/mL
- Ratio (TetM induced / Uninduced) ([22]; ratio of MICs): 1
- Effect of expression of (tet)M on activity ([22]; result in words): minimally affected
- MIC [4, 31]: 2 µg/mL (≈ 3.31 µM)
- MIC [5, 32]: 0.031 µg/mL (≈ 0.0513 µM)
- MIC [6, 33]: 2 µg/mL (≈ 3.31 µM)
- MIC [7, 34]: 0.25 µg/mL (≈ 0.414 µM)
- MIC Range [23]: 0.063-4
- MIC Range [24]: <=0.016-0.13
- MIC Range [25]: 0.5-8
- MIC [26]: ≤ 1 µg/mL
- MIC [27]: ≤ 4 µg/mL
- MIC [28]: ≤ 0.25 µg/mL
- MIC [29]: ≤ 8 µg/mL
- TnT IC50 [10]: 0.6 µg/mL
- IC50, in vitro transcription/translation system [10]: 0.62 µg/mL (≈ 1.03 µM)
- MIC [13, 36]: 2 µg/mL (≈ 3.31 µM)
- MIC [14, 37]: 0.13 µg/mL (≈ 0.215 µM)
- MIC [15]: 0.5 µg/mL (≈ 0.828 µM)
- MIC ([30]; read-out: MIC, TetK Induced): 2 µg/mL
- MIC ([30]; read-out: MIC, Uninduced): 4 µg/mL
- MIC ratio, TetK induced to uninduced ([30]; ratio of TetK induced to uninduced MIC): 0.5
- Effect of expression of (tet)K on activity ([30]; result in words): unaffected
- MIC [20, 38]: 0.25 µg/mL (≈ 0.414 µM)
- MIC [21, 39]: 8 µg/mL (≈ 13.2 µM)
